What was measured:
[1] = target: Vascular endothelial growth factor receptor 3 (Homo sapiens, UniProt P35916); assay: Inhibition of FLT4 (unknown origin) at 1 uM relative to control
[2] = target: Voltage-gated inwardly rectifying potassium channel KCNH2 (Homo sapiens, UniProt Q12809); assay: Inhibition of hERG measured by fluorescence polarization assay
[3] = target: Mitogen-activated protein kinase 9 (Homo sapiens, UniProt P45984); assay: Inhibition of JNK2-alpha-2 (unknown origin) at 1 uM relative to control
Chain of Mitogen-activated protein kinase 9 (P45984 whole entry, looked up): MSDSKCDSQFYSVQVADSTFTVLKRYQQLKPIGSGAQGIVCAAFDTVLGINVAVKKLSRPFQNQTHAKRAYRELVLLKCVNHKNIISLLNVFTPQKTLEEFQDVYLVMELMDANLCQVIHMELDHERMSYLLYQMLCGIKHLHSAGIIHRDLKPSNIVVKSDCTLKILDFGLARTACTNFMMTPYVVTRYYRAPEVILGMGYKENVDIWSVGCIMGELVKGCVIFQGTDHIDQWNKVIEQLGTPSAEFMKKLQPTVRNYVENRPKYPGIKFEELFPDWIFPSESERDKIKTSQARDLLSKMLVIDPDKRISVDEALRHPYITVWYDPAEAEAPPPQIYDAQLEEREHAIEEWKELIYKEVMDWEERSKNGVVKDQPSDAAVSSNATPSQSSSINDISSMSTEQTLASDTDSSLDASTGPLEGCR

Chain of Voltage-gated inwardly rectifying potassium channel KCNH2 (Q12809 whole entry): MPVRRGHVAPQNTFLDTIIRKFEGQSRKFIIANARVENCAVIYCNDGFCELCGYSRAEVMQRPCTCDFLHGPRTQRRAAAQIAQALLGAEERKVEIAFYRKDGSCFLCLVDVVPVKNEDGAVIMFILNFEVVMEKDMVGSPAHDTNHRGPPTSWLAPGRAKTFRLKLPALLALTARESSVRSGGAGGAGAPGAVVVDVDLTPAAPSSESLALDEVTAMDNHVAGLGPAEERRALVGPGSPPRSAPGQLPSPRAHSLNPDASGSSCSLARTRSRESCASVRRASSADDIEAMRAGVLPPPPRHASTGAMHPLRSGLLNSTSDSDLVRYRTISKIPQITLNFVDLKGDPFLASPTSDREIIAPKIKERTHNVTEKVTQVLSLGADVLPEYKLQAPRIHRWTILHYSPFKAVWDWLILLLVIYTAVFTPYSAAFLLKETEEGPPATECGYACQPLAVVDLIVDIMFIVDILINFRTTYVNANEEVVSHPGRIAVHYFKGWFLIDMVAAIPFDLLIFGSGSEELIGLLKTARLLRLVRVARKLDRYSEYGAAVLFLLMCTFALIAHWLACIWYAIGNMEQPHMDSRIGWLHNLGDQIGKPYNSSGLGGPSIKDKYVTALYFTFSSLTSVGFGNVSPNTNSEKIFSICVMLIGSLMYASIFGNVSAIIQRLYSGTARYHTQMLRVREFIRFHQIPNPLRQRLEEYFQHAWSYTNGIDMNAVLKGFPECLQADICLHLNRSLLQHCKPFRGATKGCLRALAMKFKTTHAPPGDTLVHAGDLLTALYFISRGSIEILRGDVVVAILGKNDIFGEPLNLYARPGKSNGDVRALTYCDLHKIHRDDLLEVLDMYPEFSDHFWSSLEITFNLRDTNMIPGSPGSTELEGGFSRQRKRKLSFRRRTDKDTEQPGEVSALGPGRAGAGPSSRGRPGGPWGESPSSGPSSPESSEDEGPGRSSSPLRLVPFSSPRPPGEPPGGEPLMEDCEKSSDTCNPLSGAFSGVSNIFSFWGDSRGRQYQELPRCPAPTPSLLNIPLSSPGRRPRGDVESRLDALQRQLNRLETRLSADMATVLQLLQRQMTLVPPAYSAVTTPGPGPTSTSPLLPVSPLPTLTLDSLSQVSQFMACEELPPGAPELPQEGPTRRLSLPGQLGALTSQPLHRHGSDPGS
Chain of Vascular endothelial growth factor receptor 3 (P35916 whole entry): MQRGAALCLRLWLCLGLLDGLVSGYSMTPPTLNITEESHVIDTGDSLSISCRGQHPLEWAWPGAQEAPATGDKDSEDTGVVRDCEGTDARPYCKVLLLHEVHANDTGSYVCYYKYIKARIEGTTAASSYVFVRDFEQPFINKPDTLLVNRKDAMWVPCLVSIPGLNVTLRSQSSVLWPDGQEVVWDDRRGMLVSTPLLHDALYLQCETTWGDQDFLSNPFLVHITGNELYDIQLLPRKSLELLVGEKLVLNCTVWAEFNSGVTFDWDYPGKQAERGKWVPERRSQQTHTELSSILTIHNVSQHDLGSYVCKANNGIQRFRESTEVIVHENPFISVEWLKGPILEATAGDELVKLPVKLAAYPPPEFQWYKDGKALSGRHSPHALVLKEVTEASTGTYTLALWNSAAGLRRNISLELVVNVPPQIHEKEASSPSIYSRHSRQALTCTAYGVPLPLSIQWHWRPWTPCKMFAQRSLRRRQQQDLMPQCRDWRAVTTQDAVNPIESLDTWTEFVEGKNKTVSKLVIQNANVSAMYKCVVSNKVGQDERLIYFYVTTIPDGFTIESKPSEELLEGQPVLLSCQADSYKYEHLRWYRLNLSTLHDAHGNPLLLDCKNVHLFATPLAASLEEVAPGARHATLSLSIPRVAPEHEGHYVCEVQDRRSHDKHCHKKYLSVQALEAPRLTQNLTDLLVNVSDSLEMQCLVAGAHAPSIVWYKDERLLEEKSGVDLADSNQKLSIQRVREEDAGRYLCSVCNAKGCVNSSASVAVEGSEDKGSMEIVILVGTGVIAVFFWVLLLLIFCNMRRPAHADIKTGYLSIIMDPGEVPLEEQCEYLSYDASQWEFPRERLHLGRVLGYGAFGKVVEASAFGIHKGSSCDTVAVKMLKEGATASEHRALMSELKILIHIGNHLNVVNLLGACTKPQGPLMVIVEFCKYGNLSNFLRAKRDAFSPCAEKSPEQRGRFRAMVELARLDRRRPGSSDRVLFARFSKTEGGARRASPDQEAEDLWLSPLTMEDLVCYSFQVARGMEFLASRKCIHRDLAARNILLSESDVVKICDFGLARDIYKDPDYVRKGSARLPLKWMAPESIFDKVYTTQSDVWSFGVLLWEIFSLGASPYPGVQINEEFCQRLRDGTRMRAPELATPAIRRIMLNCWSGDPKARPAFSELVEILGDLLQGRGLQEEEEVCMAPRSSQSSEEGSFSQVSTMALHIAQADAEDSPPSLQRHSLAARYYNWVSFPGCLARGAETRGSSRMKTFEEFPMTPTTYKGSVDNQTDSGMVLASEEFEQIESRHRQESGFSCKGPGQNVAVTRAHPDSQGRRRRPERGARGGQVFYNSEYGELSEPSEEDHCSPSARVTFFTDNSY

**Q.** With `O=C(NCCCNc1cc(-c2cn(-c3ccccc3)nc2-c2cccc(O)c2)ccn1)Nc1ccc(F)cc1` as the compound, how does the inhibition [1] read?
**A.** 84%

**Q.** What about the IC50 [2] of the same compound?
**A.** > 50 µM

**Q.** And the inhibition [3]?
**A.** 53%

— ChEMBL document CHEMBL5113453, “Design, synthesis, and biological evaluation of a new series of pyrazole derivatives: Discovery of potent and selective JNK3 kinase inhibitors” (Bioorg Med Chem, 2022)
